Assays:
Format in all cases: cell-based
[1] = test system: Mycobacterium tuberculosis ATCC 35837; experiment: Method of the proportions, Table 3 entry 1
[2] = test system: Mycobacterium tuberculosis ATCC 35820; experiment: Method of the proportions, Table 3 entry 2
[3] = test system: Mycobacterium tuberculosis ATCC 35838; experiment: Method of the proportions, Table 3 entry 3
[4] = test system: Mycobacterium tuberculosis ATCC 35822; experiment: Method of the proportions, Table 3 entry 4
[5] = test system: Mycobacterium tuberculosis H37 RV; experiment: Method of the proportions, Table 3 entry 5
[6] = test system: Mycobacterium tuberculosis 38 strains assayed; experiment: Method of the proportions, Table 3 entry 6
[7] = test system: Mycobacterium tuberculosis 8 strains assayed; experiment: Method of the proportions, Table 3 entry 7
[8] = test system: Mycobacterium tuberculosis 2 strains assayed; experiment: Method of the proportions, Table 3 entry 8
[9] = test system: Mycobacterium tuberculosis 3 strains assayed; experiment: Method of the proportions, Table 3 entry 9
[10] = test system: Mycobacterium tuberculosis 1 strain assayed; experiment: Method of the proportions, Table 3 entry 10
[11] = test system: Mycobacterium avium-intracellulare complex 5 strains assayed; experiment: Method of the proportions, Table 3 entry 11
[12] = test system: Mycobacterium Kansasii 4 strains assayed; experiment: Method of the proportions, Table 3 entry 12
[13] = concentration analysed 0.2 μg/ml

| Molecule | Sensitivity of strain (s/R) ([1]; concentration analysed 1 μg/ml) | Sensitivity of strain (s/R) ([2]; concentration analysed 1 μg/ml) | Sensitivity of strain (s/R) ([3]; concentration analysed 1 μg/ml) | Sensitivity of strain (s/R) ([4]; concentration analysed 1 μg/ml) | Sensitivity of strain (s/R) ([5]; concentration analysed 1 μg/ml) | Sensitivity of strains (s/R) ([6]; concentration analysed 1 μg/ml) | Sensitivity of strains (s/R) ([7]; concentration analysed 1 μg/ml) | Sensitivity of strains (s/R) ([8]; concentration analysed 1 μg/ml) | Sensitivity of strains (s/R) ([9]; concentration analysed 1 μg/ml) | Sensitivity of strain (s/R) ([10]; concentration analysed 1 μg/ml) | Sensitivity of strains (s/R) ([11]; concentration analysed 1 μg/ml) | Sensitivity of strains (s/R) ([12]; concentration analysed 1 μg/ml) | further results |
| --- | --- | --- | --- | --- | --- | --- | --- | --- | --- | --- | --- | --- | --- |
| 4-deoxo-3,4-[(2R)-2-spiro[2,6-bis(4-fluorophenyl)-4-piperidil]-2,5-dihydro-1H-imidazo]rifamycin S [RFA 5M] | s (s means sensitive) | s (s means sensitive) | s (s means sensitive) | s (s means sensitive) | s (s means sensitive) | s (s means sensitive) | s (s means sensitive) | s (s means sensitive) | s (s means sensitive) | s (s means sensitive) | s (s means sensitive) | s (s means sensitive) | – |
| CO[C@H]1/C=C/O[C@@]2(C)Oc3c(C)c(O)c4c(O)c(c(/C=N/N5CCN(C)CC5)c(O)c4c3C2=O)NC(=O)/C(C)=C\C=C\[C@H](C)[C@H](O)[C@@H](C)[C@@H](O)[C@@H](C)[C@H](OC(C)=O)[C@@H]1C [RI, rifampicin] | R (R means resistent) | s (s means sensitive) | s (s means sensitive) | s (s means sensitive) | s (s means sensitive) | s (s means sensitive) | s (s means sensitive) | s (s means sensitive) | s (s means sensitive) | s (s means sensitive) | R (R means resistent) | s (s means sensitive) | MIC ([11]; Mycobacterium avium-intracellulare, five strains, all resistant): > 1 µg/mL |
| CN[C@@H]1[C@H](O[C@H]2[C@H](O[C@H]3[C@H](O)[C@@H](O)[C@H](N=C(N)N)[C@@H](O)[C@@H]3N=C(N)N)O[C@@H](C)[C@]2(O)C=O)O[C@@H](CO)[C@H](O)[C@H]1O [SM] | – | – | – | – | – | – | – | – | – | – | – | – | Sensitivity of strain (s/R) ([1]; concentration analysed 4 μg/ml): s (s means sensitive); Sensitivity of strain (s/R) ([2]; concentration analysed 4 μg/ml): R (R means resistent); Sensitivity of strain (s/R) ([3]; concentration analysed 4 μg/ml): s (s means sensitive); Sensitivity of strain (s/R) ([4]; concentration analysed 4 μg/ml): s (s means sensitive); Sensitivity of strain (s/R) ([5]; concentration analysed 4 μg/ml): s (s means sensitive); Sensitivity of strains (s/R) ([6]; concentration analysed 4 μg/ml): s (s means sensitive); Sensitivity of strains (s/R) ([7]; concentration analysed 4 μg/ml): s (s means sensitive); Sensitivity of strains (s/R) ([8]; concentration analysed 4 μg/ml): s (s means sensitive); Sensitivity of strains (s/R) ([9]; concentration analysed 4 μg/ml): R (R means resistent); Sensitivity of strain (s/R) ([10]; concentration analysed 4 μg/ml): R (R means resistent); Sensitivity of strains (s/R) ([11]; concentration analysed 4 μg/ml): s/R; Sensitivity of strains (s/R) ([12]; concentration analysed 4 μg/ml): R (R means resistent) |
| 4-deoxo-3,4-[(2R)-2-spiro(N-homoallyl-2,6-diphenyl-4-piperidil)-2,5-dihydro-1H-imidazo]rifamycin S [RFA 15M] | R (R means resistent) | s (s means sensitive) | s (s means sensitive) | s (s means sensitive) | s (s means sensitive) | s (s means sensitive) | s (s means sensitive) | s (s means sensitive) | s (s means sensitive) | s (s means sensitive) | s/R | s (s means sensitive) | – |
| 4-deoxo-3,4-[(2R)-2-spiro(N-allyl-2,6-diphenyl-4-piperidil)-2,5-dihydro-1H-imidazo]rifamycin S [RFA 7M] | R (R means resistent) | s (s means sensitive) | s (s means sensitive) | s (s means sensitive) | s (s means sensitive) | s (s means sensitive) | s (s means sensitive) | s (s means sensitive) | s (s means sensitive) | s (s means sensitive) | R (R means resistent) | s (s means sensitive) | – |
| NNC(=O)c1ccncc1 [IZ, isoniazid] | – | – | – | – | – | – | – | – | – | – | – | – | Sensitivity of strain (s/R) [1, 13]: s (s means sensitive); Sensitivity of strain (s/R) [2, 13]: s (s means sensitive); Sensitivity of strain (s/R) [3, 13]: s (s means sensitive); Sensitivity of strain (s/R) [4, 13]: R (R means resistent); Sensitivity of strain (s/R) [5, 13]: s (s means sensitive); Sensitivity of strains (s/R) [6, 13]: s (s means sensitive); Sensitivity of strains (s/R) [7, 13]: s (s means sensitive); Sensitivity of strains (s/R) [8, 13]: R (R means resistent); Sensitivity of strains (s/R) [9, 13]: s (s means sensitive); Sensitivity of strain (s/R) [10, 13]: R (R means resistent); Sensitivity of strains (s/R) [11, 13]: R (R means resistent); Sensitivity of strains (s/R) [12, 13]: R (R means resistent) |
